Data set [1] relates to A431-CCK2R tumour xenografts. The settings on record: mouse, in vivo.
Method: (§1) For the induction of tumour xenografts, A431-CCK2R and A431-mock cells were injected subcutaneously in athymic BALB/c nude mice (Charles River or Janvier Labs), respectively (2 million cells in 200 μL). When tumours had reached a size of approximately 0.2 ml, biodistribution studies were carried out. Groups of 3-5 mice were injected intravenously via a lateral tail vein with the peptidomimetics, labelled with ^177Lu (0.5-1 MBq and 0.02-0.03 nmol peptidomimetic) or ^68Ga (˜0.5 MBq and 0.02-0.03 nmol peptidomimetic). To check for receptor specificity blocking studies using co-injection of a 1000-fold molar excess of the unlabelled peptide (˜20 nmol) together with the administration of the ^177Lu-labelled peptide were performed (FIG. 3). After selected time points post-injection (p.i.) the animals were sacrificed by cervical dislocation, tumours and other tissues (blood, lung, heart, muscle, bone, spleen, intestine, liver, kidneys, stomach, pancreas) were removed, weighed, and their radioactivity measured in a gamma counter.
(§2) The biodistribution profile of ^177Lu-DOTA-MGSA and ^177Lu-DOTA-MGS5 over up to 7 days was studied in female athymic BALB/c nude mice, inoculated with A431-CCK2R cells (left flank) at an age of 6-8 weeks (5 animals per peptidomimetic and for each time point of 1 h, 24 h, 3 d and 7 d). When tumours had reached a size of approximately 0.1-0.2 ml, biodistribution studies were carried out.
The nature of data set [2]: in vivo. The settings on record: female, athymic BALB/c nude, mouse, iv, total radioactivity.
Method: (§3) Biodistribution studies evaluating the tumour uptake of the radiolabelled inventive CCK2R targeting peptide analogues were performed in xenografted nude mice.
(§4) For the induction of tumour xenografts, A431-CCK2R and A431-mock cells were injected subcutaneously in athymic BALB/c nude mice (Charles River or Janvier Labs), respectively (2 million cells in 200 μL). When tumours had reached a size of approximately 0.2 ml, biodistribution studies were carried out. Groups of 3-5 mice were injected intravenously via a lateral tail vein with the peptidomimetics, labelled with ^177Lu (0.5-1 MBq and 0.02-0.03 nmol peptidomimetic) or ^68Ga (˜0.5 MBq and 0.02-0.03 nmol peptidomimetic). […] After selected time points post-injection (p.i.) the animals were sacrificed by cervical dislocation, tumours and other tissues (blood, lung, heart, muscle, bone, spleen, intestine, liver, kidneys, stomach, pancreas) were removed, weighed, and their radioactivity measured in a gamma counter.
(§5) Results were expressed as percentage of injected activity per gram tissue (% IA/g) and tumour to organ activity ratios were calculated from the activity measured in the dissected tissues (FIGS. 2 and 3).
Data set [3] is described as follows: in vivo. The note with it: female, athymic BALB/c nude, mouse, iv, total radioactivity. This is another data set of the same source.
Method: as §1, §2
The target in data set [4] is T1, CCK2R (Homo sapiens, UniProt P32239).
T1 construct: expressed in transfected cells; host or cells: A431 cells (A431-CCK2R), provided by Dr. Luigi Aloj
T1 sequence (P32239 1-447): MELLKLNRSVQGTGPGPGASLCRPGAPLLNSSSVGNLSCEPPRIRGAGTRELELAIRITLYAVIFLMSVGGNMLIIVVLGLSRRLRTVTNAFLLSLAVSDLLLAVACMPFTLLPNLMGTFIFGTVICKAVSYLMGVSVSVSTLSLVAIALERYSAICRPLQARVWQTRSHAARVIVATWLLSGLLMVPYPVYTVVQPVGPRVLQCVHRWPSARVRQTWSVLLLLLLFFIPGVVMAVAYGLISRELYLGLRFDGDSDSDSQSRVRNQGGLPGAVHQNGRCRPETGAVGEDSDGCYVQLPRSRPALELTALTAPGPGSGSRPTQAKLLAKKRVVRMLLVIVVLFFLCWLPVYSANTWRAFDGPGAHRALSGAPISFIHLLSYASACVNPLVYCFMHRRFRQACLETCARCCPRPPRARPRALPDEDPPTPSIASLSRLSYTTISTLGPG
The data set can be described thus: Competition binding assay against [^125I][3-iodo-Tyr^12,Leu^15]gastrin-I on A431-CCK2R cells. The settings on record: displacement of [^125I][3-iodo-Tyr^12,Leu^15]gastrin-I, 1 h at RT. The protocol:
Affinity for CCK2R was studied in A431-CCK2R cells. […] Radioiodination of gastrin-I was carried out using the chloramine-T method. Non-carrier-added [^125I][3-iodo-Tyr^12,Leu^15]gastrin-I was obtained by HPLC purification and stored in aliquots at −20° C. Binding assays were carried out in 96-well filter plates (MultiScreenHTS-FB, Merck Group, Darmstadt, Germany) pretreated with 10 mM TRIS/139 mM NaCl pH 7.4 (2×250 μL). For the assay a number of 400,000 A431-CCK2R cells per well was prepared in 35 mM HEPES buffer pH 7.4 containing 10 mM MgCl2, 14 μM bacitracin and 0.5% BSA (a hypotonic solution disturbing the integrity of the cell membranes). The cells were incubated in triplicates with increasing concentrations of the peptidomimetics (0.0003 to 1,000 nM) and [^125I-Tyr^12]gastrin-I (˜25,000 cpm) for 1 h at RT. Incubation was interrupted by filtration of the medium and rapid rinsing with ice-cold 10 mM TRIS/139 mM NaCl pH 7.4 (2×200 μl) and the filters were counted in the gamma-counter. Half maximal inhibitory concentration (IC50) values were calculated following nonlinear regression with Origin software (Microcal Origin 6.1, Northampton, MA) and a representative assay was chosen for comparison.

A short description of data set [5]: Stability against enzymatic degradation in vivo (radio-HPLC of blood). Also noted: species or system BALB/c mice. The note with it: ^177Lu-labelled; for percentage of intact radioligand present in the blood: 30 min p.i. The protocol: To further characterise the stability of the radiolabelled peptidomimetic in vivo, metabolic studies were carried out in 5-6-week-old female BALB/c mice (Charles River, Sulzfeld, Germany) injected intravenously with ^177Lu-labelled and ^68Ga-labelled peptidomimetics. All animal experiments were conducted in compliance with the Austrian animal protection laws and with the approval of the Austrian Ministry of Science. To allow monitoring of the metabolites by radio-HPLC, mice were injected with a higher amount of radioactivity (20-40 MBq ^177Lu, corresponding to ˜1 nmol total peptide, or ˜10 MBq ^68Ga, corresponding to ˜1 nmol total peptide) through a lateral tail vein and euthanized by cervical dislocation at selected time points p.i. […] A sample of blood was collected and the degradation was assessed by radio-HPLC. For this purpose blood samples were precipitated with ACN, centrifuged at 2000 g for 2 min and diluted with water (1:1/v:v) prior to HPLC analysis using a Dionex chromatography system including radiodetection and UV detection equipped with a Phenomenex Jupiter Proteo C12 column (90 Å, 4 μm, 250×4.6 mm) column using a water/acetonitrile/0.1% TFA gradient system.

Data set [6] is described as follows: in vivo. The settings on record: female, athymic BALB/c nude, mouse, iv, total radioactivity. This is another data set of the same source.
Method: as §4
In further biodistribution studies the tumour uptake and imaging properties of different ^68Ga-labelled pepitdiomimetics was evaluated. For this purpose female athymic BALB/c nude mice (Janvier Labs, Le Genest Saint Isle, France) were inoculated with A431-CCK2R cells (left flank) at an age of 8-10 weeks.
Data set [7] has as its system A431-CCK2R tumour xenografts. The settings on record: ^68Ga-labelled, previously reported (Klingler M et al., J Nucl Med 2019); cited from earlier work.
A short description of data set [8]: Biodistribution of ^177Lu-labelled peptidomimetics at 4 h p.i. in xenografted nude mice. The note with it: female, athymic BALB/c nude, mouse, iv, total radioactivity.
Method: as §3, §4, §5
The subject of data set [9] is A431-CCK2R tumour xenografts. Put plainly: Biodistribution of ^177Lu-labelled peptidomimetics up to 7 days p.i. The settings on record: difference not significant.
Method: as §1, §2
Data set [10] relates to A431-CCK2R and A431-mock tumour xenografts. The settings on record: ^177Lu-labelled, 4 h p.i., Klingler M et al., J Med Chem 2020; cited from earlier work.
Where [11] appears, read: tumour uptake in A431-CCK2R xenografts.

Starred links: 1 amine or outer side, 2 acyl side, 3 side chain; linkers in the order of their positions; H or OH if unused. Non-standard residues stand in square brackets, D forms with d. Residues, ends and D or L forms follow the SMILES beside them. *: point of attachment. DOTA = O=C(O)CN1CCN(CC(=O)O)CCN(CC(=O)*)CCN(CC(=O)O)CC1; d(γGlu) = O=C(O)[C@@H](CCC(=O)[*:2])N[*:1]; 1Nal = N[C@@H](Cc1cccc2ccccc12)C(=O)O; NMeNle = CCCC[C@H](NC)C(=O)O; GABA = NCCCC(=O)O; βAla = NCCC(=O)O

For the compound `CCCC[C@@H](C(=O)N[C@@H](CC(=O)O)C(=O)N[C@@H](Cc1cccc2ccccc12)C(N)=O)N(C)C(=O)[C@H](Cc1c[nH]c2ccccc12)NC(=O)CCNC(=O)CC(O)CNC(=O)CC(O)CNC(=O)CN1CCN(CC(=O)O)CCN(CC(=O)O)CCN(CC(=O)O)CC1` (single isomer, unassigned) [^177Lu-DOTA-MGSA, ^177Lu-DOTA-GABOB-GABOB-βAla-Trp-(NMe)Nle-Asp-1Nal-NH2, metal not drawn], in data set [1], the “accumulation of radioactivity in kidneys compared to ^177Lu-DOTA-MGS5” value is listed as “significantly lower”. For the same compound, the tissue to tissue ratio at 4 h in data set [2] stood at 16.7 ± 2.7. The tissue uptake – broadly, the percentage of the injected dose found per gram of tissue – at 4 h in data set [2] (kidney uptake) was found to be 2 ± 0.3 %ID/g. In [2] (setting [11]), the tissue uptake at 4 h was found to be 32.1 ± 4.1 %ID/g. Further, in [3], the tissue uptake at 1 h was 56.3 ± 9.1 %ID/g and the tissue uptake at 168 h was 1.2 ± 0.5 %ID/g.
With `CCCC[C@@H](C(=O)N[C@@H](CC(=O)O)C(=O)N[C@@H](Cc1cccc2ccccc12)C(N)=O)N(C)C(=O)[C@H](Cc1c[nH]c2ccccc12)NC(=O)CCNC(=O)CC(O)CNC(=O)CC(O)CNC(=O)CN1CCN(CC(=O)O)CCN(CC(=O)O)CCN(CC(=O)O)CC1` (stereo partly drawn) [DOTA-MGSA, DOTA-Gabob-Gabob-βAla-Trp-(NMe)Nle-Asp-1Nal-NH2], the IC50 (in general, the point on the concentration scale where inhibition reaches its midpoint) in data set [4] amounted to 0.21 ± 0.01 nM.
For `CCCC[C@@H](C(=O)N[C@@H](CC(=O)O)C(=O)N[C@@H](Cc1cccc2ccccc12)C(N)=O)N(C)C(=O)[C@H](Cc1c[nH]c2ccccc12)NC(=O)CCNC(=O)CC[C@@H](NC(=O)CC[C@@H](NC(=O)CN1CCN(CC(=O)O)CCN(CC(=O)O)CCN(CC(=O)O)CC1)C(=O)O)C(=O)O` [DOTA-MGSC, DOTA-γDGlu-γDGlu-βAla-Trp-(NMe)Nle-Asp-1Nal-NH2] ({DOTA-d(γGlu)-d(γGlu)-βAla}-W[NMeNle]D[1Nal]-NH2), the IC50 in data set [4] is 0.16 ± 0.01 nM.
As for `CCCC[C@H](NC(=O)[C@H](Cc1c[nH]c2ccccc12)NC(=O)CNC(=O)[C@H](Cc1ccc(O)cc1)NC(=O)[C@H](C)NC(=O)[C@@H](CCC(=O)O)NC(=O)[C@@H](CCC(=O)O)NC(=O)[C@@H](CCC(=O)O)NC(=O)[C@@H](CCC(=O)O)NC(=O)[C@@H](CCC(=O)O)NC(=O)[C@@H](CCC(=O)O)NC(=O)CN1CCN(CC(=O)O)CCN(CC(=O)O)CCN(CC(=O)O)CC1)C(=O)N[C@@H](CC(=O)O)C(=O)N[C@@H](Cc1ccccc1)C(N)=O` [^177Lu-PP-F11N, DOTA-DGlu-DGlu-DGlu-DGlu-DGlu-DGlu-Ala-Tyr-Gly-Trp-Nle-Asp-Phe-NH2, metal not drawn], the “percentage of intact radioligand present in the blood” value in [5] came out at 12.7%.
As for `CCCC[C@@H](C(=O)N[C@@H](CC(=O)O)C(=O)N[C@@H](Cc1cccc2ccccc12)C(N)=O)N(C)C(=O)[C@H](Cc1c[nH]c2ccccc12)NC(=O)CCNC(=O)CC(O)CNC(=O)CC(O)CNC(=O)CN1CCN(CC(=O)O)CCN(CC(=O)O)CCN(CC(=O)O)CC1` (single isomer, unassigned) [^68Ga-DOTA-MGSA, ^68Ga-DOTA-GABOB-GABOB-βAla-Trp-(NMe)Nle-Asp-1Nal-NH2, metal not drawn], the tissue to tissue ratio at 1 h in [6] turned out to be 11.2 ± 0.8. In addition, the tissue uptake at 1 h in data set [6] (kidney uptake) is 2.4 ± 0.2 %ID/g; in data set [6] (setting [11]), 27 ± 0.2 %ID/g.
As for `CCCC[C@@H](C(=O)N[C@@H](CC(=O)O)C(=O)N[C@@H](Cc1cccc2ccccc12)C(N)=O)N(C)C(=O)[C@H](Cc1c[nH]c2ccccc12)NC(=O)CNC(=O)[C@H](Cc1ccc(O)cc1)NC(=O)[C@H](C)NC(=O)[C@@H](CCC(=O)O)NC(=O)CN1CCN(CC(=O)O)CCN(CC(=O)O)CCN(CC(=O)O)CC1` [^68Ga-DOTA-MGS5, metal not drawn], in [6], the tissue to tissue ratio at 1 h was 4.1 ± 0.3. In data set [7], the kidney uptake was 5.71±1.38 % IA/g and the tumour uptake was 23.3±4.7 % IA/g.
`CCCC[C@@H](C(=O)N[C@@H](CC(=O)O)C(=O)N[C@@H](Cc1cccc2ccccc12)C(N)=O)N(C)C(=O)[C@H](Cc1c[nH]c2ccccc12)NC(=O)CCNC(=O)CCCNC(=O)CCCNC(=O)CN1CCN(CC(=O)O)CCN(CC(=O)O)CCN(CC(=O)O)CC1` [DOTA-MGSB, DOTA-Gaba-Gaba-βAla-Trp-(NMe)Nle-Asp-1Nal-NH2] ({DOTA-GABA-GABA-βAla}-W[NMeNle]D[1Nal]-NH2) displayed a half-maximal inhibitory concentration (IC50) in data set [4] of 0.31 ± 0.02 nM.
For the compound `CCCC[C@@H](C(=O)N[C@@H](CC(=O)O)C(=O)N[C@@H](Cc1cccc2ccccc12)C(N)=O)N(C)C(=O)[C@H](Cc1c[nH]c2ccccc12)NC(=O)CNC(=O)[C@H](Cc1ccc(O)cc1)NC(=O)[C@H](C)NC(=O)[C@@H](CCC(=O)O)NC(=O)CN1CCN(CC(=O)O)CCN(CC(=O)O)CCN(CC(=O)O)CC1` [^177Lu-DOTA-MGS5, metal not drawn], the tissue uptake at 4 h in data set [8] (kidney, kidney uptake, ^177Lu-labelled, 4 h p.i.) came out at 3.5 ± 0.9 %ID/g. Besides, the tissue to tissue ratio at 4 h in data set [8] (tumour and kidney) turned out to be 7 ± 2.2. Further, the “percentage intact in the blood” value in [5] (10 min p.i.) turned out to be 85.9%. Besides, the “percentage of intact radioligand present in the blood” value in data set [5] was determined as 77.0%. The “uptake levels in the blood, comparison of the two peptidomimetics” value in data set [9] is “somewhat lower uptake levels”.
For `CCCC[C@@H](C(=O)N[C@@H](CC(=O)O)C(=O)N[C@@H](Cc1cccc2ccccc12)C(N)=O)N(C)C(=O)[C@H](Cc1c[nH]c2ccccc12)NC(=O)CCNC(=O)CC[C@@H](NC(=O)CC[C@@H](NC(=O)CN1CCN(CC(=O)O)CCN(CC(=O)O)CCN(CC(=O)O)CC1)C(=O)O)C(=O)O` [^68Ga-DOTA-MGSC, ^68Ga-DOTA-γDGlu-γDGlu-βAla-Trp-(NMe)Nle-Asp-1Nal-NH2, metal not drawn] ({DOTA-d(γGlu)-d(γGlu)-βAla}-W[NMeNle]D[1Nal]-NH2), the tissue to tissue ratio at 1 h in data set [6] is 14.5 ± 0.6. Further, the tissue uptake at 1 h in [6] (kidney uptake) was 2.5 ± 0.1 %ID/g; in data set [6] (setting [11]) it was 36 ± 1.4 %ID/g.
Consider `CCCC[C@@H](C(=O)N[C@@H](CC(=O)O)C(=O)N[C@@H](Cc1cccc2ccccc12)C(N)=O)N(C)C(=O)[C@H](Cc1c[nH]c2ccccc12)NC(=O)CNC(=O)[C@H](Cc1ccc(O)cc1)NC(=O)[C@@H]1CCCN1C(=O)[C@@H](CCC(=O)O)NC(=O)CN1CCN(CC(=O)O)CCN(CC(=O)O)CCN(CC(=O)O)CC1` [^177Lu-DOTA-MGS8, metal not drawn] ({DOTA}-[dE]PYGW[NMeNle]D[1Nal]-NH2; C-terminus assumed), for which the “percentage of intact radioligand present in the blood” value in data set [5] is given as 56.8%. Besides, in data set [10], the “tumour uptake in A431-CCK2R xenografts” value is reported as 34.7±9.4 % IA/g.
